Test results from article PMC9501810, “Bitter Peptides YFYPEL, [sequence], and [sequence], Released during Gastric Digestion of Casein, Stimulate Mechanisms of Gastric Acid Secretion via Bitter Taste Receptors TAS2R16 and TAS2R38” (Journal of Agricultural and Food Chemistry, 2022).

How the values were obtained:
Format in all cases: cell-based, human
[1] = system: TAS2R30; assay: RT-qPCR gene expression of TAS2R30 in HGT-1 cells; settings: VAPFPEVF 17.5 µM, YFYPEL 0.03 µM, YQEPVLGPVRGPFPIIV 0.4 µM, normalized to PPIA and GAPDH and untreated cells, mean, n = 3–5
Protocol: (§1) For mRNA expression analysis, 800,000 cells were seeded in a T25 cell culture flask (25 cm^2) 1 day before the experiment. After incubation with 17.5 μM […], 0.03 μM YFYPEL, or 0.4 μM […] for 15, 30, 60, and 120 min, RNA was isolated using the peqGOLD RNA Kit (VWR Peqlab, USA) following the manufacturer’s protocol. Determination of RNA concentration (A260/A280 between 2.03 and 2.09) was performed on a NanoDrop One^c (Thermo Fisher Scientific Inc., USA). RNA integrity number (RIN 9.9–10.0, version 2.6, assay class Eukaryote Total RNA Nano) was analyzed using a 2100 Bioanalyzer (Agilent Technologies, USA). Removal of gDNA and synthesis of cDNA were performed using the iScript gDNA Clear cDNA Synthesis Kit (BioRad, Feldkirchen, Germany) following the manufacturer’s protocol. Real-time-qPCR (RT-qPCR) was performed with 50 ng cDNA amplified with SsoAdvanced Universal SYBR Green Supermix (Bio-Rad Laboratories, Inc., USA). The sequences of the forward and reverse primers of the 25 TAS2Rs were taken from Liszt et al.([13]) (Supporting Information Table-SI 3). Verified primers for the TAS1Rs (TAS1R1: qHsaCID0013443; TAS1R2: qHsaCID0016106; TAS1R3: qHsaCED0002321) and for MAPK1 (qHsaCEP0050000) were obtained from Bio-Rad Laboratories. PPIA[37] and GAPDH[38] were used as reference genes. The effects of the peptides on gene expression were analyzed in comparison to untreated control cells.

[2] = system: TAS2R19; assay: RT-qPCR gene expression of TAS2R19 in HGT-1 cells; settings: VAPFPEVF 17.5 µM, YFYPEL 0.03 µM, YQEPVLGPVRGPFPIIV 0.4 µM, normalized to PPIA and GAPDH and untreated cells, mean, n = 3–5
Protocol: as §1

[3] = system: TAS2R40; assay: RT-qPCR gene expression of TAS2R40 in HGT-1 cells; settings: VAPFPEVF 17.5 µM, YFYPEL 0.03 µM, YQEPVLGPVRGPFPIIV 0.4 µM, normalized to PPIA and GAPDH and untreated cells, mean, n = 3–5
Protocol: as §1

[4] = system: TAS2R3; assay: RT-qPCR gene expression of TAS2R3 in HGT-1 cells; settings: VAPFPEVF 17.5 µM, YFYPEL 0.03 µM, YQEPVLGPVRGPFPIIV 0.4 µM, normalized to PPIA and GAPDH and untreated cells, mean, n = 3–5
Protocol: as §1

[5] = system: TAS2R1; assay: RT-qPCR gene expression of TAS2R1 in HGT-1 cells; settings: VAPFPEVF 17.5 µM, YFYPEL 0.03 µM, YQEPVLGPVRGPFPIIV 0.4 µM, normalized to PPIA and GAPDH and untreated cells, mean, n = 3–5
Protocol: as §1

[6] = system: TAS2R13; assay: RT-qPCR gene expression of TAS2R13 in HGT-1 cells; settings: VAPFPEVF 17.5 µM, YFYPEL 0.03 µM, YQEPVLGPVRGPFPIIV 0.4 µM, normalized to PPIA and GAPDH and untreated cells, mean, n = 3–5
Protocol: as §1

[7] = system: TAS2R38; assay: Proton secretion assay in TAS2R38 knock-down vs mock-transfected HGT-1 cells; settings: TAS2R38kd vs mock-transfected HGT-1 cells, VAPFPEVF 17.5 µM, YFYPEL 0.03 µM, YQEPVLGPVRGPFPIIV 0.4 µM, 10 min, mean ± SEM; for reduction of the peptide-induced stimulation of proton secretion in TAS2R38kd cells: 72 h after 1 nM siRNA; for change of peptide-induced proton secretion, TAS2R38kd (in Figure 5E–G): negative = reduction
Protocol: The measurement of proton secretion from HGT-1 cells represents a well-established model for the identification of bitter compounds. By affecting extraoral bitter taste receptors with bitter compounds, a modulatory effect on proton secretion can be measured. For this purpose, cells were washed with KRHB and incubated with 3 μM of the intracellular pH indicator 1,5 carboxy-seminaphto-rhodafluor acetoxymethyl ester (SNARF-1-AM) under standard conditions. After 30 min, the cells were washed again with KRHB and then incubated with casein (0.01–10 μM equimolar related to the relevant forms αS1- and β-casein), hydrolysate (0.01–10 μM), or the peptides (0.01–200 μM). […] All substances were dissolved and diluted in KRHB. 1 mM histamine was used as a positive control. Measurements were performed using FlexStation 3 (Molecular Devices, USA). The excitation wavelength was 488 nm, and the emission wavelengths were 580 and 640 nm. For calibration (pH range 7.0–8.0), the intracellular and extracellular pH was adjusted with 2 μM nigericin in potassium buffer (20 mM NaCl, 110 mM KCl, 1 mM CaCl2, 1 mM MgSO4, 18 mM D-glucose, and 20 mM HEPES). The intracellular proton index (IPX) was calculated as the log2 value of the 580/640 ratio and compared with cells without treatment. Negative values represent increased secretion of protons and therefore stimulation of mechanisms regulating gastric acid secretion in HGT-1 cells. In contrast, positive values represent an inhibition of secretion compared to the untreated control.
Expression of TAS2R16 and TAS2R38 was reduced by treatment of HGT-1 cells with siRNA. 100,000 cells per well were seeded 1 day before the experiment into a 24-well plate. All reagents and siRNA were purchased from Thermo Fisher Scientific, USA (cytotoxicity was excluded by MTT). Transfection was performed with Lipofectamine RNAiMAX in Opti-Medium according to the manufacturer’s protocol. 1–50 nM of different siRNA sequences (HSS121396 and HSS181763 for TAS2R16 and HSS108754 and HSS108756 for TAS2R38) and three different incubation times (24, 48, and 72 h) were tested. Mock control experiments were performed analogously with 1 or 10 nM Stealth RNAi siRNA negative control. To verify the functionality of the transfection process, verified 10 nM siRNA targeting MAPK1 (VHS40312) was used (positive control). The transfection rate was checked by qPCR as described in section 2.11. For the proton secretion assays, 20,000 cells per well were seeded 1 day before transfection into a black 96-well plate. After 72 h of transfection, proton secretion activities of TAS2R16 knock-down or TAS2R38 knock-down HGT-1 were compared with the mock transfected cells by means of ΔIPX.

[8] = system: TAS2R43; assay: RT-qPCR gene expression of TAS2R43 in HGT-1 cells; settings: VAPFPEVF 17.5 µM, YFYPEL 0.03 µM, YQEPVLGPVRGPFPIIV 0.4 µM, normalized to PPIA and GAPDH and untreated cells, mean, n = 3–5
Protocol: as §1

[9] = system: TAS1R3; assay: RT-qPCR gene expression of TAS1R3 in HGT-1 cells
Protocol: as §1

[10] = 15/30/60/120 min, VAPFPEVF 17.5 µM, YQEPVLGPVRGPFPIIV 0.4 µM, n = 3

| Substance | change in gene expression of TAS2R30 ([1]; incubation 15 min) [fold change] | change in gene expression of TAS2R30 ([1]; incubation 30 min) [fold change] | change in gene expression of TAS2R30 ([1]; incubation 60 min) [fold change] | change in gene expression of TAS2R30 ([1]; incubation 120 min) [fold change] | change in gene expression of TAS2R19 ([2]; incubation 15 min) [fold change] | change in gene expression of TAS2R19 ([2]; incubation 30 min) [fold change] | change in gene expression of TAS2R19 ([2]; incubation 60 min) [fold change] | change in gene expression of TAS2R19 ([2]; incubation 120 min) [fold change] | change in gene expression of TAS2R40 ([3]; incubation 15 min) [fold change] | change in gene expression of TAS2R40 ([3]; incubation 30 min) [fold change] | change in gene expression of TAS2R40 ([3]; incubation 60 min) [fold change] | change in gene expression of TAS2R40 ([3]; incubation 120 min) [fold change] | change in gene expression of TAS2R3 ([4]; incubation 15 min) [fold change] | change in gene expression of TAS2R3 ([4]; incubation 30 min) [fold change] | change in gene expression of TAS2R3 ([4]; incubation 60 min) [fold change] | change in gene expression of TAS2R3 ([4]; incubation 120 min) [fold change] | change in gene expression of TAS2R1 ([5]; incubation 15 min) [fold change] | change in gene expression of TAS2R1 ([5]; incubation 30 min) [fold change] | change in gene expression of TAS2R1 ([5]; incubation 60 min) [fold change] | change in gene expression of TAS2R1 ([5]; incubation 120 min) [fold change] | other results |
| --- | --- | --- | --- | --- | --- | --- | --- | --- | --- | --- | --- | --- | --- | --- | --- | --- | --- | --- | --- | --- | --- |
| VAPFPEVF [bitter casein peptide αS1-CN25–32] | 0.56 | 1.53 | 0.75 | 1.62 | 0.66 | 1.22 | 0.69 | 1.25 | 0.81 | 1.54 | 0.88 | 1.42 | 0.70 | 1.56 | 1.06 | 1.72 | 0.79 | 1.36 | 0.44 | 1.62 | change in gene expression of TAS2R13 ([6]; incubation 15 min): 0.44 fold change; change in gene expression of TAS2R13 ([6]; incubation 30 min): 1.28 fold change; change in gene expression of TAS2R13 ([6]; incubation 60 min): 1.01 fold change; change in gene expression of TAS2R13 ([6]; incubation 120 min): 1.92 fold change; reduction of the peptide-induced stimulation of proton secretion in TAS2R38kd cells [7]: 37.5 ± 9.8%; change of peptide-induced proton secretion, TAS2R38kd (in Figure 5E–G) [7]: -37.5 ±9.8%; change in gene expression of TAS2R43 ([8]; incubation 15 min): 0.57 fold change; change in gene expression of TAS2R43 ([8]; incubation 30 min): 1.14 fold change; change in gene expression of TAS2R43 ([8]; incubation 60 min): 0.72 fold change; change in gene expression of TAS2R43 ([8]; incubation 120 min): 1.49 fold change; change in expression of TAS1R3 [9, 10]: no significant effect |
| YFYPEL [bitter casein peptide αS1-CN144–149] | 1.79 | 0.62 | 0.89 | 1.15 | 1.60 | 0.82 | 0.79 | 1.05 | 1.90 | 0.82 | 0.59 | 0.75 | 1.54 | 1.08 | 1.19 | 1.34 | 0.36 | 1.03 | 0.55 | 0.73 | change in gene expression of TAS2R13 ([6]; incubation 15 min): 1.14 fold change; change in gene expression of TAS2R13 ([6]; incubation 30 min): 0.53 fold change; change in gene expression of TAS2R13 ([6]; incubation 60 min): 0.78 fold change; change in gene expression of TAS2R13 ([6]; incubation 120 min): 0.88 fold change; reduction of the peptide-induced stimulation of proton secretion in TAS2R38kd cells [7]: 62.8 ± 7.0%; change of peptide-induced proton secretion, TAS2R38kd (in Figure 5E–G) [7]: -62.8 ±7.0%; change in gene expression of TAS2R43 ([8]; incubation 15 min): 1.49 fold change; change in gene expression of TAS2R43 ([8]; incubation 30 min): 0.64 fold change; change in gene expression of TAS2R43 ([8]; incubation 60 min): 0.91 fold change; change in gene expression of TAS2R43 ([8]; incubation 120 min): 1.02 fold change; change in expression of TAS1R3 ([9]; 0.03 µM YFYPEL, 15 min, p < 0.0001): significant increase |
| YQEPVLGPVRGPFPIIV [bitter casein peptide βA1/A2-CN193–209] | 0.74 | 1.88 | 1.20 | 0.89 | 0.85 | 1.58 | 1.27 | 1.05 | 0.92 | 1.78 | 0.96 | 0.86 | 1.03 | 1.89 | 1.61 | 1.40 | 0.33 | 0.43 | 1.00 | 0.84 | change in gene expression of TAS2R13 ([6]; incubation 15 min): 0.70 fold change; change in gene expression of TAS2R13 ([6]; incubation 30 min): 1.65 fold change; change in gene expression of TAS2R13 ([6]; incubation 60 min): 1.16 fold change; change in gene expression of TAS2R13 ([6]; incubation 120 min): 1.31 fold change; reduction of the peptide-induced stimulation of proton secretion in TAS2R38kd cells [7]: 45.2 ± 6.7%; change of peptide-induced proton secretion, TAS2R38kd (in Figure 5E–G) [7]: -45.2 ±6.7%; change in gene expression of TAS2R43 ([8]; incubation 15 min): 0.69 fold change; change in gene expression of TAS2R43 ([8]; incubation 30 min): 1.44 fold change; change in gene expression of TAS2R43 ([8]; incubation 60 min): 1.15 fold change; change in gene expression of TAS2R43 ([8]; incubation 120 min): 0.88 fold change; change in expression of TAS1R3 [9, 10]: no significant effect |
